Data from patent US20120029187A1, “HALOALKYLSULFONANILIDE DERIVATIVE” (Nissan Chemical Industries, Ltd., priority 2009, published 2012).

Tests used:
Format in all cases: in vivo
[1] = tested on: barnyardgrass; assay: Test Example 1: herbicidal effects in preemergence treatment under submerged conditions; settings: dose 2.52 g/a
How it was run: (§1)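 Alluvial soil was flooded to 4 cm, sown with barnyardgrass, bulrush and ducksalad, and planted with 2.5-leaf rice seedlings. On the seeding day, water-diluted emulsifiable concentrates were applied to the water surface at set doses (g/a). After three weeks in a 25 to 30° C. greenhouse, mortality was scored 0–5.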

[2] = tested on: bulrush; assay: as above; settings: dose 2.52 g/a
How it was run: as §1

[3] = tested on: ducksalad; assay: as above; settings: dose 2.52 g/a
How it was run: as §1

[4] = tested on: transplanted rice; assay: Test Example 1: preemergence treatment under submerged conditions, effect on crop; settings: dose 2.52 g/a
How it was run: as §1

[5] = tested on: barnyardgrass; assay: Test Example 2: herbicidal effects during the vegetation period under submerged conditions; settings: treatment during the vegetation period under submerged conditions; dose 2.52 g/a
How it was run: (§2)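 Barnyardgrass, bulrush and ducksalad were co-sown in alluvial soil flooded to 4 cm and grown in a greenhouse at 25 to 30° C. At the 1- or 2-leaf stage, water-diluted emulsifiable concentrates went onto the water surface at set doses (g/a). Herbicidal effect was scored three weeks later on a graded scale.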

[6] = tested on: bulrush; assay: as above; settings: treatment during the vegetation period under submerged conditions; dose 2.52 g/a
How it was run: as §2

[7] = tested on: ducksalad; assay: as above; settings: treatment during the vegetation period under submerged conditions; dose 2.52 g/a
How it was run: as §2

[8] = tested on: Italian ryegrass; assay: Test Example 3: herbicidal effects in soil treatment; settings: dose 3.2 g/a
How it was run: (§3)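 Seeds were sown in sterilized diluvial soil and covered with about 1.5 cm of soil. Compounds, formulated as emulsifiable concentrates and diluted with water, were sprayed evenly over the soil surface at set doses in g/a. Herbicidal effect was scored on a rating scale three weeks later.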

[9] = tested on: barnyardgrass; assay: as above; settings: dose 3.2 g/a
How it was run: as §3

[10] = tested on: beadstraw; assay: as above; settings: dose 3.2 g/a
How it was run: as §3

[11] = tested on: common chickweed; assay: as above; settings: dose 3.2 g/a
How it was run: as §3

[12] = tested on: common lambsquater; assay: as above; settings: dose 3.2 g/a
How it was run: as §3

[13] = tested on: common ragweed; assay: as above; settings: dose 3.2 g/a
How it was run: as §3

[14] = tested on: giant foxtail; assay: as above; settings: dose 3.2 g/a
How it was run: as §3

[15] = tested on: large crabgrass; assay: as above; settings: dose 3.2 g/a
How it was run: as §3

[16] = tested on: posumbu knotweed; assay: as above; settings: dose 3.2 g/a
How it was run: as §3

[17] = tested on: redroot pigweed; assay: as above; settings: dose 3.2 g/a
How it was run: as §3

[18] = tested on: velvetleaf; assay: as above; settings: dose 3.2 g/a
How it was run: as §3

[19] = tested on: water foxtail; assay: as above; settings: dose 3.2 g/a
How it was run: as §3

[20] = tested on: wild oat; assay: as above; settings: dose 3.2 g/a
How it was run: as §3

[21] = tested on: Italian ryegrass; assay: Test Example 4: herbicidal effect in foliage treatment; settings: dose 3.2 g/a, three weeks after the application
How it was run: (§4)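 14-day greenhouse-grown plants (25–30° C) sprayed on foliage with diluted EC; dose as g/a; effect graded after 3 weeks.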

[22] = tested on: barnyardgrass; assay: as above; settings: dose 3.2 g/a, three weeks after the application
How it was run: as §4

[23] = tested on: beadstraw; assay: as above; settings: dose 3.2 g/a, three weeks after the application
How it was run: as §4

[24] = tested on: common chickweed; assay: as above; settings: dose 3.2 g/a, three weeks after the application
How it was run: as §4

[25] = tested on: common lambsquater; assay: as above; settings: dose 3.2 g/a, three weeks after the application
How it was run: as §4

[26] = tested on: common ragweed; assay: as above; settings: dose 3.2 g/a, three weeks after the application
How it was run: as §4

[27] = tested on: giant foxtail; assay: as above; settings: dose 3.2 g/a, three weeks after the application
How it was run: as §4

[28] = tested on: large crabgrass; assay: as above; settings: dose 3.2 g/a, three weeks after the application
How it was run: as §4

[29] = tested on: posumbu knotweed; assay: as above; settings: dose 3.2 g/a, three weeks after the application
How it was run: as §4

[30] = tested on: redroot pigweed; assay: as above; settings: dose 3.2 g/a, three weeks after the application
How it was run: as §4

[31] = tested on: velvetleaf; assay: as above; settings: dose 3.2 g/a, three weeks after the application
How it was run: as §4

[32] = tested on: water foxtail; assay: as above; settings: dose 3.2 g/a, three weeks after the application
How it was run: as §4

[33] = tested on: wild oat; assay: as above; settings: dose 3.2 g/a, three weeks after the application
How it was run: as §4

O=C1CCSCN1Cc1ccccc1NS(=O)(=O)C(F)(F)F [II-78]
A: barnyardgrass, herbicidal effect (evaluation scale 0-5) [1]: 5 (mortality of 90% or above (nearly complete death)) | B: bulrush, herbicidal effect (evaluation scale 0-5) [2]: 5 (mortality of 90% or above (nearly complete death)) | C: ducksalad, herbicidal effect (evaluation scale 0-5) [3]: 5 (mortality of 90% or above (nearly complete death)) | a: transplanted rice, effect on crop (evaluation scale 0-5) [4]: 0 (mortality of less than 5% (almost ineffective)) | A: barnyardgrass, herbicidal effect (evaluation scale 0-5) [5]: 5 (mortality of 90% or above (nearly complete death)) | B: bulrush, herbicidal effect (evaluation scale 0-5) [6]: 5 (mortality of 90% or above (nearly complete death)) | C: ducksalad, herbicidal effect (evaluation scale 0-5) [7]: 5 (mortality of 90% or above (nearly complete death)) | herbicidal effect, H: Italian ryegrass [8]: 5 (mortality of 90% or above (nearly complete death)) | herbicidal effect, A: barnyardgrass [9]: 5 (mortality of 90% or above (nearly complete death)) | herbicidal effect, O: beadstraw [10]: 0 (mortality of less than 5% (almost ineffective)) | herbicidal effect, N: common chickweed [11]: 5 (mortality of 90% or above (nearly complete death)) | herbicidal effect, L: common lambsquater [12]: 4 (mortality of at least 70% and less than 90%) | herbicidal effect, J: common ragweed [13]: 4 (mortality of at least 70% and less than 90%) | herbicidal effect, E: giant foxtail [14]: 5 (mortality of 90% or above (nearly complete death)) | herbicidal effect, D: large crabgrass [15]: 5 (mortality of 90% or above (nearly complete death)) | herbicidal effect, M: posumbu knotweed [16]: 4 (mortality of at least 70% and less than 90%) | herbicidal effect, K: redroot pigweed [17]: 3 (mortality of at least 40% and less than 70%) | herbicidal effect, I: velvetleaf [18]: 5 (mortality of 90% or above (nearly complete death)) | herbicidal effect, G: water foxtail [19]: 5 (mortality of 90% or above (nearly complete death)) | herbicidal effect, F: wild oat [20]: 0 (mortality of less than 5% (almost ineffective)) | H: Italian ryegrass, herbicidal effect [21]: 5 (mortality of 90% or above (nearly complete death)) | A: barnyardgrass, herbicidal effect [22]: 4 (mortality of at least 70% and less than 90%) | O: beadstraw, herbicidal effect [23]: 5 (mortality of 90% or above (nearly complete death)) | N: common chickweed, herbicidal effect [24]: 4 (mortality of at least 70% and less than 90%) | L: common lambsquater, herbicidal effect [25]: 4 (mortality of at least 70% and less than 90%) | J: common ragweed, herbicidal effect [26]: 4 (mortality of at least 70% and less than 90%) | E: giant foxtail, herbicidal effect [27]: 4 (mortality of at least 70% and less than 90%) | D: large crabgrass, herbicidal effect [28]: 4 (mortality of at least 70% and less than 90%) | M: posumbu knotweed, herbicidal effect [29]: 4 (mortality of at least 70% and less than 90%) | K: redroot pigweed, herbicidal effect [30]: 4 (mortality of at least 70% and less than 90%) | I: velvetleaf, herbicidal effect [31]: 5 (mortality of 90% or above (nearly complete death)) | G: water foxtail, herbicidal effect [32]: 5 (mortality of 90% or above (nearly complete death)) | F: wild oat, herbicidal effect [33]: 0 (mortality of less than 5% (almost ineffective))
